Data from ChEMBL document CHEMBL1201862, “PubChem BioAssay data set” (2004).
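Cells were grown in 96-well plates and exposed to each compound for 48 hours at five concentrations; endpoints were interpolated linearly between bracketing concentrations, or set to the highest concentration if not reached. GI50: concentration for 50% inhibition of growth.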 Active and inactive are the calls of the source. No stated cut-off is given here; in the data, active = GI50 up to about 1.1 µM and inactive = higher. Starred links: 1 amine or outer side, 2 acyl side, 3 side chain; linkers in the order of their positions; H or OH if unused. Non-standard residues stand in square brackets, D forms with d. Residues, ends and D or L forms follow the SMILES beside them. *: point of attachment. X47 = CCC(=O)CC1CC(C)CC(C(=O)[*:2])N1[*:1]; X46 = CCCCCCCCC(C)C(=O)*; Aib = CC(C)(N)C(=O)O; X48 = CC(CN(C)CCO)N*

What was measured:
Assay in all cases: inhibition of tumour cell growth, NCI panel, 48 h
COLO 205 = system: COLO 205
HCC 2998 = system: HCC 2998
HCT-116 = system: HCT-116
HOP-92 = system: HOP-92
K562 = system: K562
KM12 = system: KM12
MCF7 = system: MCF7
MDA-MB-231 = system: MDA-MB-231
MDA-N = system: MDA-N
MOLT-4 = system: MOLT-4
NCI-H226 = system: NCI-H226
NCI/ADR-RES = system: NCI/ADR-RES
OVCAR-3 = system: OVCAR-3
OVCAR-8 = system: OVCAR-8
SK-MEL-5 = system: SK-MEL-5
SNB-19 = system: SNB-19
SNB-75 = system: SNB-75
T47D = system: T47D
TK-10 = system: TK-10
UO-31 = system: UO-31

| Structure (SMILES) | GI50 (COLO 205) | GI50 (HCC 2998) | GI50 (HCT-116) | GI50 (HOP-92) | GI50 (K562) | GI50 (KM12) | GI50 (MCF7) | GI50 (MDA-MB-231) | GI50 (MDA-N) | GI50 (MOLT-4) | GI50 (NCI-H226) | GI50 (NCI/ADR-RES) | GI50 (OVCAR-3) | GI50 (OVCAR-8) | GI50 (SK-MEL-5) | GI50 (SNB-19) | GI50 (SNB-75) | GI50 (T47D) | GI50 (TK-10) | GI50 (UO-31) |
| --- | --- | --- | --- | --- | --- | --- | --- | --- | --- | --- | --- | --- | --- | --- | --- | --- | --- | --- | --- | --- |
| CSC1(SC2=NCCN2)SC2(NCCN2)S1 | 21.3 µM (inactive) | 15.5 µM (inactive) | 17 µM (inactive) | 13.5 µM (inactive) | 12.5 µM (inactive) | 2.3 µM (inactive) | 3.18 µM (inactive) | 21.1 µM (inactive) | 20.5 µM (inactive) | 10.8 µM (inactive) | 27.2 µM (inactive) | 31.8 µM (inactive) | 15.8 µM (inactive) | 19.7 µM (inactive) | 18.9 µM (inactive) | 20.3 µM (inactive) | 17.3 µM (inactive) | 0.9 µM (active) | 6.34 µM (inactive) | 17.3 µM (inactive) |
| C=CC(C)CCC(C/C=C(\C)CCCC(C)C)C(=C)CCCC(C)C (stereo not given) | > 100 µM (inactive) | > 100 µM (inactive) | > 100 µM (inactive) | > 100 µM (inactive) | > 100 µM (inactive) | > 100 µM (inactive) | > 100 µM (inactive) | > 100 µM (inactive) | > 100 µM (inactive) | > 100 µM (inactive) | > 100 µM (inactive) | > 100 µM (inactive) | > 100 µM (inactive) | > 100 µM (inactive) | > 100 µM (inactive) | > 100 µM (inactive) | > 100 µM (inactive) | > 100 µM (inactive) | > 100 µM (inactive) | > 100 µM (inactive) |
| C/C(=N/NC(=S)Nc1ccc([N+](=O)[O-])cc1)c1cccc(/C(C)=N\NC(=S)Nc2ccc([N+](=O)[O-])cc2)n1 | 0.218 µM (active) | 1.02 µM (active) | 0.291 µM (active) | 0.782 µM (active) | 0.569 µM (active) | 0.348 µM (active) | 0.341 µM (active) | 0.56 µM (active) | 2.35 µM (inactive) | 0.308 µM (active) | 0.193 µM (active) | 0.469 µM (active) | 0.0867 µM (active) | 0.329 µM (active) | 0.353 µM (active) | 1.33 µM (inactive) | 3.3 µM (inactive) | 2.16 µM (inactive) | 0.577 µM (active) | 0.382 µM (active) |
| Oc1ccc(/C=N/c2ccccc2O)cc1 | 30.2 µM (inactive) | 45.3 µM (inactive) | 50.1 µM (inactive) | > 100 µM (inactive) | 24.7 µM (inactive) | 75.3 µM (inactive) | 27.4 µM (inactive) | 51.1 µM (inactive) | 18.3 µM (inactive) | 51.2 µM (inactive) | 94.6 µM (inactive) | 75 µM (inactive) | 40 µM (inactive) | 39.4 µM (inactive) | 20.2 µM (inactive) | > 100 µM (inactive) | > 100 µM (inactive) | 73.5 µM (inactive) | 59.7 µM (inactive) | 25.9 µM (inactive) |
| CCCCCCCCC(C)C(=O)N1CCCC1C(=O)N1C(CC(=O)CC)CC(C)CC1C(=O)NC(C)C(=O)NC(C)(C)C(=O)NC(C)(C)C(=O)NC(C(=O)NC(C)C(=O)NC(C)(C)C(=O)NC(C)(C)C(=O)NC(C)CN(C)CCO)C(C)CC (stereo not given) (X46-P[X47]A[Aib][Aib]IA[Aib][Aib]-X48; configuration not given here) | 0.0135 µM (active) | 0.0385 µM (active) | 0.0299 µM (active) | < 0.01 µM (active) | < 0.01 µM (active) | 0.142 µM (active) | < 0.01 µM (active) | 0.56 µM (active) | 1.17 µM (inactive) | 0.08 µM (active) | 0.133 µM (active) | 0.435 µM (active) | < 0.01 µM (active) | < 0.01 µM (active) | < 0.0135 µM (active) | 0.214 µM (active) | 0.382 µM (active) | < 0.01 µM (active) | 0.09 µM (active) | 0.124 µM (active) |
